Reference: ChEMBL document CHEMBL4507260 (2021)
Activity calls are given as the source filed them. No cut-off for these calls is given here.

Experiments:
D(4) dopamine receptor = molecular target: T1, D(4) dopamine receptor (Homo sapiens, UniProt P21917); assay: Radioligand assay (DRD4.4)
T1 sequence (P21917 whole entry): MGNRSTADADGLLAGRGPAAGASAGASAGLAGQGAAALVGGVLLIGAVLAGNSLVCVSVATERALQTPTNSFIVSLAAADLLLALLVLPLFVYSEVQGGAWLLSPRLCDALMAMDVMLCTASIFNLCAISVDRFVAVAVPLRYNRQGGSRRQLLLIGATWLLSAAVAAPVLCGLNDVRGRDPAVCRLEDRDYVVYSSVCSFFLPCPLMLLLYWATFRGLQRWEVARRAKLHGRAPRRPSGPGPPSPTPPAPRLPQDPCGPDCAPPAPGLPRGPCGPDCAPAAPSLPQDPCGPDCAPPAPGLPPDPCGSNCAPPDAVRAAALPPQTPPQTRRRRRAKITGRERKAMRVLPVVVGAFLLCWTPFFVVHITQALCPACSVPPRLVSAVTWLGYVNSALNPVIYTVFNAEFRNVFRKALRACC

[1] = molecular target: Adenosine receptor A3 (Homo sapiens) (UniProt P0DMS8); assay: A3 CEREP ligand profiling; conditions: Compound concentration 10.0 uM
[2] = molecular target: Adrenergic receptor alpha-1 (Homo sapiens) (UniProt P35348+P25100+P35368); assay: a 1 CEREP ligand profiling; assay type: protein assay; conditions: Compound concentration 10.0 uM
[3] = molecular target: Gastrin/cholecystokinin type B receptor (Homo sapiens) (UniProt P32239); assay: CCKB (CCK2) CEREP ligand profiling; conditions: Compound concentration 10.0 uM
[4] = molecular target: Kappa-type opioid receptor (Homo sapiens) (UniProt P41145); assay: kappa CEREP ligand profiling; conditions: Compound concentration 10.0 uM
[5] = molecular target: Mu-type opioid receptor (Homo sapiens) (UniProt P35372); assay: mu CEREP ligand profiling; conditions: Compound concentration 10.0 uM
[6] = molecular target: Sodium channel alpha subunit (Na+ channel) (Homo sapiens, UniProt P35498+P35499+Q01118+Q14524+Q15858+Q99250+Q9NY46+Q9UI33+Q9UQD0+Q9Y5Y9); assay: Na+ channel CEREP ligand profiling; assay type: protein assay; conditions: compound concentration 10 uM
[7] = molecular target: Activin receptor type-1-like (Homo sapiens) (UniProt P37023); conditions: Compound concentration 1000.0 nM
[8] = system: ALK tyrosine kinase receptor (Homo sapiens), Q9UM73 [C1156Y]; conditions: Compound concentration 1000.0 nM
ALK tyrosine kinase receptor (Homo sapiens), Q9UM73 [C1156Y], sequence (Q9UM73 whole entry C1156Y, looked up): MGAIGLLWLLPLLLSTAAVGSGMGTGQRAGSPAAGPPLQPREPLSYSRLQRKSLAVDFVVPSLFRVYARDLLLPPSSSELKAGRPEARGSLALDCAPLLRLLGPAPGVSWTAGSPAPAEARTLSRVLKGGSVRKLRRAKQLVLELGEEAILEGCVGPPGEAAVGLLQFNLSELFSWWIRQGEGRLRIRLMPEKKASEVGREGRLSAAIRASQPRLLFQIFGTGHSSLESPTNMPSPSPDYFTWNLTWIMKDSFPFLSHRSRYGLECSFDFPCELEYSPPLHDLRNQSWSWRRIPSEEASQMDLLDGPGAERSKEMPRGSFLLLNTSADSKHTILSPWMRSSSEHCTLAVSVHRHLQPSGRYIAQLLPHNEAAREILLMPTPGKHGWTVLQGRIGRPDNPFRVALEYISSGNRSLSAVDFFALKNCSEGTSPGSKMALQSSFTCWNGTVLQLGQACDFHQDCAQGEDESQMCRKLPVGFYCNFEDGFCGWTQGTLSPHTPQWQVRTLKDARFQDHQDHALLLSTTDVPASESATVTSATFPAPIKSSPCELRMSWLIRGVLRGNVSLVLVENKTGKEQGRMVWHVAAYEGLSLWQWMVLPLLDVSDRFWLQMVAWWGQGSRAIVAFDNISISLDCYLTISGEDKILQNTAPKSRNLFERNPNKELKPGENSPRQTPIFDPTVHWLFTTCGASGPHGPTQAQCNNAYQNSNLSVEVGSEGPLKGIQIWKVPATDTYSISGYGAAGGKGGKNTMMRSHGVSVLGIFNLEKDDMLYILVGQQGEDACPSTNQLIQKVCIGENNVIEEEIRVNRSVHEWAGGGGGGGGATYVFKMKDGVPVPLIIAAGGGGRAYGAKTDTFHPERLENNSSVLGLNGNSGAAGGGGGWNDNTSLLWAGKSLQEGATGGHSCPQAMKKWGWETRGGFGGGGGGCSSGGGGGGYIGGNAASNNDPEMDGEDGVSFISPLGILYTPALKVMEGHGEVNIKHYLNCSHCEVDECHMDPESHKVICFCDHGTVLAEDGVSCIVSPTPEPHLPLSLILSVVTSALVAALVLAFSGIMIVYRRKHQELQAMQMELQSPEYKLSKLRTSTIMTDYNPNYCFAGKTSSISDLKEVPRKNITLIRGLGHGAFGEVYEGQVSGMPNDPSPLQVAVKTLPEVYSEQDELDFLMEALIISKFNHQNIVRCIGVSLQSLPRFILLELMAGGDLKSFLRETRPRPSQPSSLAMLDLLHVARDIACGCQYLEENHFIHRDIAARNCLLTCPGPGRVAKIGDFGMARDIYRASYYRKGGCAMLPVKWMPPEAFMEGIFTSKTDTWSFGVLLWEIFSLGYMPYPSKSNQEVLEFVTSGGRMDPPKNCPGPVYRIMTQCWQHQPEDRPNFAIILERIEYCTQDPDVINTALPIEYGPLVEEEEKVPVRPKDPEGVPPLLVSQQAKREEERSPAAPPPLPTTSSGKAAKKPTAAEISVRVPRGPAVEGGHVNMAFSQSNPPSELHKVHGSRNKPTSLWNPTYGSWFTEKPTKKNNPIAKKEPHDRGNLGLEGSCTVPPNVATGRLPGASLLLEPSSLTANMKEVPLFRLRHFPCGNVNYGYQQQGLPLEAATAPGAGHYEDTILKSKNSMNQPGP

[9] = molecular target: Cyclin-dependent kinase 11A (Homo sapiens) (UniProt Q9UQ88); conditions: Compound concentration 1000.0 nM
[10] = molecular target: Serine/threonine-protein kinase Chk2 (Homo sapiens) (UniProt O96017); conditions: Compound concentration 1000.0 nM
[11] = molecular target: Dual specificity protein kinase CLK1 (Homo sapiens) (UniProt P49759); conditions: Compound concentration 1000.0 nM
[12] = molecular target: Casein kinase I isoform epsilon (Homo sapiens) (UniProt P49674); conditions: Compound concentration 1000.0 nM
Casein kinase I isoform epsilon (Homo sapiens), sequence (P49674 whole entry, looked up, canonical isoform): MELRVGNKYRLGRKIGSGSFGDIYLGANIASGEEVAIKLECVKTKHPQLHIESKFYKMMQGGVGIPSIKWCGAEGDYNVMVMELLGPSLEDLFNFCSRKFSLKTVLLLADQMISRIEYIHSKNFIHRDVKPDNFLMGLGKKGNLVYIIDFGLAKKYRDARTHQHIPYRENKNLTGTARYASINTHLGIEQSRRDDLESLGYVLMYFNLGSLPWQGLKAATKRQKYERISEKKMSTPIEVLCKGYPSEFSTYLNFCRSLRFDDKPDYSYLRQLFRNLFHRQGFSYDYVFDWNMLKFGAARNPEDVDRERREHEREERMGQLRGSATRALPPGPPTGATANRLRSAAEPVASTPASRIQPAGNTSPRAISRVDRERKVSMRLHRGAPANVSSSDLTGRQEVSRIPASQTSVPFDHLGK

[13] = molecular target: Tyrosine-protein kinase ITK/TSK (Homo sapiens) (UniProt Q08881); conditions: Compound concentration 1000.0 nM
[14] = molecular target: Hepatocyte growth factor receptor (Homo sapiens) (UniProt P08581); conditions: Compound concentration 1000.0 nM
[15] = molecular target: Phosphatidylinositol 4,5-bisphosphate 3-kinase catalytic subunit alpha isoform (Homo sapiens) (UniProt P42336); conditions: Compound concentration 1000.0 nM
Phosphatidylinositol 4,5-bisphosphate 3-kinase catalytic subunit alpha isoform (Homo sapiens), sequence (P42336 whole entry, canonical isoform): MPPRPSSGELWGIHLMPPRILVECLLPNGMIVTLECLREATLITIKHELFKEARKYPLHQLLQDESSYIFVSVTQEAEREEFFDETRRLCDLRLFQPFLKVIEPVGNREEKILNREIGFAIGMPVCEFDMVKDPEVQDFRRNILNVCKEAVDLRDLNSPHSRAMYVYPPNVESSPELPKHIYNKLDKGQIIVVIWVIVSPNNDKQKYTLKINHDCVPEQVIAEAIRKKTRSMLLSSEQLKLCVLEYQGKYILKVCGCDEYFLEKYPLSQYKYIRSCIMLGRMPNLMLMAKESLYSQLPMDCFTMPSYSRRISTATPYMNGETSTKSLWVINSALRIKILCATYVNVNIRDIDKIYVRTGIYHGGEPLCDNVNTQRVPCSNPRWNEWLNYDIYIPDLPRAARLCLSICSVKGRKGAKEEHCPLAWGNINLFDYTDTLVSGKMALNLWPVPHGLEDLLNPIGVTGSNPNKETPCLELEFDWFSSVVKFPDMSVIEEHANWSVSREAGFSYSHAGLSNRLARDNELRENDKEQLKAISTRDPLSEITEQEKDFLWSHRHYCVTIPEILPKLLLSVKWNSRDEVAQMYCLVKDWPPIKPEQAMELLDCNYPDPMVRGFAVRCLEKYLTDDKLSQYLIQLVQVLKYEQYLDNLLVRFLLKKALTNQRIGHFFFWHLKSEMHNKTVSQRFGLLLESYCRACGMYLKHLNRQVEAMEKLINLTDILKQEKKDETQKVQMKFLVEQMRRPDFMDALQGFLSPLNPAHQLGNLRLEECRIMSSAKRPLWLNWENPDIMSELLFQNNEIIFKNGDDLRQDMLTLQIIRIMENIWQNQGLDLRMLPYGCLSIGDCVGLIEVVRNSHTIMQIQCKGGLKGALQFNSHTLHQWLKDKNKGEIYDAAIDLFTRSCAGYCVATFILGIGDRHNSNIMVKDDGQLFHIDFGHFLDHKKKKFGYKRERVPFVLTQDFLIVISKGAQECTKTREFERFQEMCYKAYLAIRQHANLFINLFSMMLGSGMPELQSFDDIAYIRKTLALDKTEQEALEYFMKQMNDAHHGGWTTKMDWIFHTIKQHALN

[16] = system: Proto-oncogene tyrosine-protein kinase receptor Ret (Homo sapiens), P07949 [V804M]; conditions: Compound concentration 1000.0 nM
Proto-oncogene tyrosine-protein kinase receptor Ret (Homo sapiens), P07949 [V804M], sequence (P07949 whole entry V804M): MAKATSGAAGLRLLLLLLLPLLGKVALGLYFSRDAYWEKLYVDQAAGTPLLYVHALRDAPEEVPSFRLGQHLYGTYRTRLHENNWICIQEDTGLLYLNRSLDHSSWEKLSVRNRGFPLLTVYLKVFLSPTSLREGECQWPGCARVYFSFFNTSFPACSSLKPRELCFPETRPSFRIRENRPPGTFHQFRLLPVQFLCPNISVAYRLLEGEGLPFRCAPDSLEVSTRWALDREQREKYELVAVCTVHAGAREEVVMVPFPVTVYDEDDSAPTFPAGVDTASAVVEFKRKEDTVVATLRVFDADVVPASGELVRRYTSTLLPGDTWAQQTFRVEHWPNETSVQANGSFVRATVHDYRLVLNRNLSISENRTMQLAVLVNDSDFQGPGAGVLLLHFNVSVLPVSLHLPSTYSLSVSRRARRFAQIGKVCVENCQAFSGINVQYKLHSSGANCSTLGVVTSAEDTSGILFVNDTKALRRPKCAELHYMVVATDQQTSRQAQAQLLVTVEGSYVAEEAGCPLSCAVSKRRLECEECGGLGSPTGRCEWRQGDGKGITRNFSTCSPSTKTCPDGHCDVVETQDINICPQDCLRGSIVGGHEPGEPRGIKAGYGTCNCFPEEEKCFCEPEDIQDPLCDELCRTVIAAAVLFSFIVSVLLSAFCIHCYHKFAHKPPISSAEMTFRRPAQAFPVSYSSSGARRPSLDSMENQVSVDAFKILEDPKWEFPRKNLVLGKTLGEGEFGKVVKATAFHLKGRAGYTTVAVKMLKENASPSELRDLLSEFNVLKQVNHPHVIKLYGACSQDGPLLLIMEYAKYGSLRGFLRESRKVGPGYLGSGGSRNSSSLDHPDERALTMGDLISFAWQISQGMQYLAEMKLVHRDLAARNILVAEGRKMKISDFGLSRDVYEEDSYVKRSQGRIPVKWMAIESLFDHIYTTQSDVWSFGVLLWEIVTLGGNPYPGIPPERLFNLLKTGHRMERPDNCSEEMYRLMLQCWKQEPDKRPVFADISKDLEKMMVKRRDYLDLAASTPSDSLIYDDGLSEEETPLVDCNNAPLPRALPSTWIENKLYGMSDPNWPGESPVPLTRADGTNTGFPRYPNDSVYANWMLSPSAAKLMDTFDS

[17] = molecular target: Ribosomal protein S6 kinase alpha-4 (Homo sapiens) (UniProt O75676); conditions: Compound concentration 1000.0 nM
[18] = molecular target: Ribosomal protein S6 kinase alpha-1 (Homo sapiens) (UniProt Q15418); conditions: Compound concentration 1000.0 nM
Ribosomal protein S6 kinase alpha-1 (Homo sapiens), sequence (Q15418 whole entry): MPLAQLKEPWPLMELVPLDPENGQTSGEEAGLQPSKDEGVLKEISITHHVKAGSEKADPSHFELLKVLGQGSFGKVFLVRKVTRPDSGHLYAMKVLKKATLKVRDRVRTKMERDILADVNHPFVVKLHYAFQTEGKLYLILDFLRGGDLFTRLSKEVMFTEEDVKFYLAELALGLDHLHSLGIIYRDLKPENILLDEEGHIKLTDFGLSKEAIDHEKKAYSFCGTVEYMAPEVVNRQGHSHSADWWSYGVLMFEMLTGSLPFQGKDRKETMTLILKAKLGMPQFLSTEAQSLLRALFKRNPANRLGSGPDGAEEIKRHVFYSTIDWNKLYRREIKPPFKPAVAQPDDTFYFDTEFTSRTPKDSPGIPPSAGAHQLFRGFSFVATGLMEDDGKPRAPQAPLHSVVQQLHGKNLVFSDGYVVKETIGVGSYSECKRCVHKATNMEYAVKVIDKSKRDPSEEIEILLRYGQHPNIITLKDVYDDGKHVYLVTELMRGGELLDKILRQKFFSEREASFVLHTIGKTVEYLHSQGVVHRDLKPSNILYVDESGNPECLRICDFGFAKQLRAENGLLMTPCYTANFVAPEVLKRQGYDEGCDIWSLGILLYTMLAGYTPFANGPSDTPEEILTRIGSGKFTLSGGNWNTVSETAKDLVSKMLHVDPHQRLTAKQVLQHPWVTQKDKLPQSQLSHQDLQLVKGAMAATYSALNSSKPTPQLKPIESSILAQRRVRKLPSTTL

[19] = molecular target: Serine/threonine-protein kinase SIK2 (Homo sapiens) (UniProt Q9H0K1); conditions: Compound concentration 1000.0 nM
[20] = molecular target: NT-3 growth factor receptor (Homo sapiens) (UniProt Q16288); conditions: Compound concentration 1000.0 nM
[21] = molecular target: Sodium-dependent noradrenaline transporter (Homo sapiens) (UniProt P23975); conditions: Compound concentration 10.0 uM
Description: NE transporter CEREP ligand profiling

[22] = molecular target: Type-1 angiotensin II receptor (Homo sapiens) (UniProt P30556); conditions: Compound concentration 10.0 uM
Description: AT1 CEREP ligand profiling

[23] = molecular target: Type-2 angiotensin II receptor (Homo sapiens) (UniProt P50052); conditions: Compound concentration 10.0 uM
Description: AT2 CEREP ligand profiling

[24] = molecular target: GABA-A receptor; anion channel (Homo sapiens) (UniProt P14867+P47870+P18507+P28472+P48169+Q99928+Q9UN88+P34903+O00591+O14764+Q8N1C3+P18505+P78334+P47869+P31644+Q16445); conditions: Compound concentration 10.0 uM
Description: BZD (central) CEREP ligand profiling

[25] = molecular target: Cannabinoid receptor 1 (Homo sapiens) (UniProt P21554); conditions: Compound concentration 10.0 uM
Description: CB1 CEREP ligand profiling

[26] = molecular target: D(4) dopamine receptor (Homo sapiens) (UniProt P21917); conditions: Compound concentration 10.0 uM
Description: D4 CEREP ligand profiling

[27] = molecular target: D(1B) dopamine receptor (Homo sapiens) (UniProt P21918); conditions: Compound concentration 10.0 uM
Description: D5 CEREP ligand profiling

[28] = molecular target: C-X-C chemokine receptor type 2 (Homo sapiens) (UniProt P25025); conditions: Compound concentration 10.0 uM
Description: IL-8B (CXCR2) CEREP ligand profiling

[29] = molecular target: Tumor necrosis factor (Homo sapiens) (UniProt P01375); conditions: Compound concentration 10.0 uM
Description: TNF-a CEREP ligand profiling

[30] = molecular target: Substance-P receptor (Homo sapiens) (UniProt P25103); conditions: Compound concentration 10.0 uM
Description: NK1 CEREP ligand profiling

[31] = molecular target: Neuropeptide Y receptor type 2 (Homo sapiens) (UniProt P49146); conditions: Compound concentration 10.0 uM
Description: Y2 CEREP ligand profiling

[32] = molecular target: Delta-type opioid receptor (Homo sapiens) (UniProt P41143); conditions: Compound concentration 10.0 uM
Description: delta CEREP ligand profiling

[33] = molecular target: Prostacyclin receptor (Homo sapiens) (UniProt P43119); conditions: Compound concentration 10.0 uM
Description: PGI2 CEREP ligand profiling

[34] = molecular target: 5-hydroxytryptamine receptor 7 (Homo sapiens) (UniProt P34969); conditions: Compound concentration 10.0 uM
Description: 5-HT7 CEREP ligand profiling

[35] = molecular target: Calcium-activated potassium channel (Homo sapiens) (UniProt Q92952+Q9UGI6+Q12791+O15554+Q9H2S1+A8MYU2); conditions: Compound concentration 10.0 uM
Description: SK+Ca channel CEREP ligand profiling

[36] = molecular target: Melatonin receptor type 1A (Homo sapiens) (UniProt P48039); assay: ML1 CEREP ligand profiling; conditions: Compound concentration 10.0 uM
[37] = system: Epidermal growth factor receptor (Homo sapiens), P00533 [G719C]; conditions: Compound concentration 1000.0 nM

Structure (SMILES): c1ccc(N2CCN(Cc3nc4ccccc4[nH]3)CC2)nc1 [ABT-724]
- Ki (D(4) dopamine receptor): 63.6 nM (active)
- inhibition [1]: 11%
- inhibition [2]: 23%
- inhibition [3]: 17%
- inhibition [4]: 68%
- inhibition [5]: 51%
- inhibition at 10 µM [6]: < 10% (not active)
- residual activity [7]: 95%
- residual activity [8]: 100%
- residual activity [9]: 100%
- residual activity [10]: 100%
- residual activity [11]: 100%
- residual activity [12]: 100%
- residual activity [13]: 100%
- residual activity [14]: 100%
- residual activity [15]: 100%
- residual activity [16]: 100%
- residual activity [17]: 100%
- residual activity [18]: 100%
- residual activity [19]: 100%
- residual activity [20]: 87%
- inhibition [21]: < 10%
- inhibition [22]: < 10%
- inhibition [23]: < 10%
- inhibition [24]: < 10%
- inhibition [25]: < 10%
- inhibition [26]: 99%
- inhibition [27]: < 10%
- inhibition [28]: < 10%
- inhibition [29]: < 10%
- inhibition [30]: < 10%
- inhibition [31]: < 10%
- inhibition [32]: < 10%
- inhibition [33]: < 10%
- inhibition [34]: < 10%
- inhibition [35]: < 10%
- inhibition [36]: 51%

Structure (SMILES): CSc1cccnc1N1CCN(Cc2nc3ccccc3[nH]2)CC1 [A-769]
- residual activity [7]: 100%
- residual activity [8]: 93%
- residual activity [9]: 100%
- residual activity [10]: 96%
- residual activity [11]: 80%
- residual activity [12]: 91%
- residual activity [37]: 96%
- residual activity [13]: 97%
- residual activity [14]: 100%
- residual activity [15]: 69%
- residual activity [16]: 100%
- residual activity [17]: 73%
- residual activity [18]: 100%
- residual activity [19]: 100%
- residual activity [20]: 83%
